Active and inactive are the calls of the source.
How the values were obtained:
[1] = target: T1, Zinc finger protein mex-5 (Caenorhabditis elegans, UniProt Q9XUB2); assay: MEX-5/TCR-2 RNA interaction inhibitors, dose response, biochemical, C. elegans, fluorescence polarization (AID 1960)
T1 sequence (Q9XUB2 whole entry): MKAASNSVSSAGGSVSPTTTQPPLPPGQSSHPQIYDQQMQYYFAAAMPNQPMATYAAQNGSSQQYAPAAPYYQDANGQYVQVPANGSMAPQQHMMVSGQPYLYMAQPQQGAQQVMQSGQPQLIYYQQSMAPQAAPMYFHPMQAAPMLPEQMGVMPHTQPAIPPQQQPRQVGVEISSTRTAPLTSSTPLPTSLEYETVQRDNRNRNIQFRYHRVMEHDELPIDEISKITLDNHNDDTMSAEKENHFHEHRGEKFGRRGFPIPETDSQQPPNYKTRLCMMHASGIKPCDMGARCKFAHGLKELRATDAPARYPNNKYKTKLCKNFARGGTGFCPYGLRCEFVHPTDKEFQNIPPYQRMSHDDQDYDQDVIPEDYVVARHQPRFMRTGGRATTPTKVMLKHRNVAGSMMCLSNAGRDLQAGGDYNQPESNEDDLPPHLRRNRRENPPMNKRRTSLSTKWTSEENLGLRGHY

[2] = target: T2, RNA-binding protein pos-1 (Caenorhabditis elegans, UniProt G5EF15); assay: inhibitors of POS-1/mex-3 RNA binding, dose response, biochemical, fluorescence polarization (AID 1964);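 note: purified POS-1 fused to maltose binding protein made in E. coli; potency of compounds blocking POS-1 binding to fluorescent RNA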
T2 sequence (G5EF15 whole entry): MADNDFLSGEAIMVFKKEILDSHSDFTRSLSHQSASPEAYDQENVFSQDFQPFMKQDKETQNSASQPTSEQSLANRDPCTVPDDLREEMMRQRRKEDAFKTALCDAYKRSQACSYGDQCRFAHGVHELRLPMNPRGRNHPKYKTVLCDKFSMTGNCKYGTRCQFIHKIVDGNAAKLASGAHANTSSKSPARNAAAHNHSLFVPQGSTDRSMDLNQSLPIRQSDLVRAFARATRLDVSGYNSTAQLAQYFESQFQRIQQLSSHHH

[3] = inhibitors of firefly luciferase expression or activity, dose response, H4 neuroglioma cells, luminescence (AID 1990); assay type: functional, cell-based
[4] = Luminescence Cell-Based Dose Response HTS to Identify Inhibitors of 5'UTR Stem-Loop Driven Prion Protein mRNA Translation in H4 Neuroglioblastoma Cells. [Related pubchem assays: 1827 (Project Summary), 1813 (Primary HTS)]; assay type: functional
[5] = inhibitors of SNCA 5'UTR-driven reporter translation, confirmation, H4 neuroglioma cells, luminescence (AID 1988); assay type: functional, cell-based
[6] = system: Streptococcus; assay: Group A Streptococcus viability loss, dose response, counter-screen for streptokinase expression inhibitor project, luminescence, BacTiterGlo (AID 1915); assay type: functional, organism-based;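 note: potency for reduction of bacterial viability or growth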
[7] = target: T3, Streptokinase A (Streptococcus pyogenes serotype M1, UniProt P10520); assay: S. pyogenes streptokinase expression inhibitors, potency, dose response, plasminogen activation absorbance, OD405 (AID 1914); assay type: functional, Streptococcus pyogenes M1 GAS;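 note: secreted streptokinase activity via plasminogen activation per viability signal from cell pellet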
T3 sequence (P10520 whole entry): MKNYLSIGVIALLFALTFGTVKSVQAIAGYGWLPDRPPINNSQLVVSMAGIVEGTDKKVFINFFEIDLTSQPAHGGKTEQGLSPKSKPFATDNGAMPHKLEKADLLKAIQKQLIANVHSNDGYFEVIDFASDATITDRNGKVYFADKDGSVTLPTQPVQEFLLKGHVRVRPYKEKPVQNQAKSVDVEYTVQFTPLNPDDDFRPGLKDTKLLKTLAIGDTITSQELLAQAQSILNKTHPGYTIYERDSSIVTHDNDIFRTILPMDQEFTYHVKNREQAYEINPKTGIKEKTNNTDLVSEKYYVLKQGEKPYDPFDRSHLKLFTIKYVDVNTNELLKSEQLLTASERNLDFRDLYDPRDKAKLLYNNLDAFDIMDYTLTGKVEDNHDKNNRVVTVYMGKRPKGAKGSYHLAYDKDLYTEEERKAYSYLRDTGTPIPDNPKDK

[8] = system: Streptococcus sp. 'group A'; assay: growth inhibition of control SK(-) GAS strain, dose response, counter-screen for streptokinase expression inhibitor project, luminescence, kanamycin, BacTiterGlo, confirmation (AID 1900); assay type: functional, organism-based
[9] = target: Cytochrome P450 2D6 (Homo sapiens, UniProt P10635);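 note: CYP2D6 member of a cytochrome P450 panel assay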
[10] = target: Cytochrome P450 2C9 (Homo sapiens, UniProt P11712)
[11] = target: Cytochrome P450 2C19 (Homo sapiens, UniProt P33261); assay: Cytochrome panel assay with activity outcomes. Panel member name: p450-cyp2c19 Compounds with AC50 equal or less than 10 uM are considered active; assay type: functional; conditions: read-out: AC50
[12] = target: Cytochrome P450 3A4 (Homo sapiens, UniProt P08684);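 note: CYP3A4 tested as one member of a cytochrome P450 panel screen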
[13] = target: T4, Cytochrome P450 1A2 (Homo sapiens, UniProt P05177);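 note: PubChem cytochrome P450 panel assay, CYP1A2 panel member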
T4 sequence (P05177 whole entry): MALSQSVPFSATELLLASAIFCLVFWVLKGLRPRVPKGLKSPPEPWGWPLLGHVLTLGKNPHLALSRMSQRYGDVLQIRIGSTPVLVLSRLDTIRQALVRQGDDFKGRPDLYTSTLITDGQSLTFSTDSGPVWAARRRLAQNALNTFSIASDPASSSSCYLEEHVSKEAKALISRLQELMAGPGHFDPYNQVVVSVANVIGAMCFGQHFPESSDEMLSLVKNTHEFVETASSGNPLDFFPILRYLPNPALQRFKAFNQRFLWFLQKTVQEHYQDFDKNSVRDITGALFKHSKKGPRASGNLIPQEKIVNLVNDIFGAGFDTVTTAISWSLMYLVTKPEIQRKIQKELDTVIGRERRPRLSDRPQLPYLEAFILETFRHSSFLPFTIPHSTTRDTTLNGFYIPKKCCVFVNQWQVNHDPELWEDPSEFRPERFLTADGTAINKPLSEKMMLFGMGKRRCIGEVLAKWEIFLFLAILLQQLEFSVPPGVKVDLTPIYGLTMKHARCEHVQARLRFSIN

[14] = HEp-2 cell cytotoxicity, dose response, cytotoxicity control for RSV inhibitor project, HTS (AID 2410); assay type: functional; conditions: human respiratory syncytial virus

Cytochrome P450 2D6, sequence (P10635 whole entry): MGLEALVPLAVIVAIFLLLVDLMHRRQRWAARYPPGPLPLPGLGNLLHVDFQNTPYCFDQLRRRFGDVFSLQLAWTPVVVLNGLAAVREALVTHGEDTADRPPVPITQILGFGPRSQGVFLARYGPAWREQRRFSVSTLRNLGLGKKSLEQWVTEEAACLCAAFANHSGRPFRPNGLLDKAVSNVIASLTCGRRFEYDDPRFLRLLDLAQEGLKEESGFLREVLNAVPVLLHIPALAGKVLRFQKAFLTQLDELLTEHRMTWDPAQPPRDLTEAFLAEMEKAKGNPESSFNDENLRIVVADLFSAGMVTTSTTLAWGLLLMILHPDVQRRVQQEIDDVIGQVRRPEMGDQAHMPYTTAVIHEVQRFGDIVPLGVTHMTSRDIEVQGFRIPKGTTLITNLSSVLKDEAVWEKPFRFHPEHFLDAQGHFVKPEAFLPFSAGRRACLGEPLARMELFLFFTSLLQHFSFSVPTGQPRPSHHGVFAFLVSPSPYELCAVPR
Cytochrome P450 2C9, sequence (P11712 whole entry): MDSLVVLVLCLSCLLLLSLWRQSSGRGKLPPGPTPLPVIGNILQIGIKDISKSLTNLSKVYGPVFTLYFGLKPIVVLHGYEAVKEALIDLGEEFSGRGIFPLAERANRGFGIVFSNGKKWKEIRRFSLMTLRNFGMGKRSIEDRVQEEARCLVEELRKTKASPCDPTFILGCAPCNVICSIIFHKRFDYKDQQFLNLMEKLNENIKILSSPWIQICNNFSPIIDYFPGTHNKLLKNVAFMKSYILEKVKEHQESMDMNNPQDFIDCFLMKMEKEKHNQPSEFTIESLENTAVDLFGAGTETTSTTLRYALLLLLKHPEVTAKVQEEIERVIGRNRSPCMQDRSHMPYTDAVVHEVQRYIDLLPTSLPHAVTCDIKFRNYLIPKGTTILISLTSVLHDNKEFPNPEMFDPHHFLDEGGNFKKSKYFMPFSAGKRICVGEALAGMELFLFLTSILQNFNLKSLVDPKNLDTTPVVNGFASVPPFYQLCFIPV
Cytochrome P450 2C19, sequence (P33261 whole entry): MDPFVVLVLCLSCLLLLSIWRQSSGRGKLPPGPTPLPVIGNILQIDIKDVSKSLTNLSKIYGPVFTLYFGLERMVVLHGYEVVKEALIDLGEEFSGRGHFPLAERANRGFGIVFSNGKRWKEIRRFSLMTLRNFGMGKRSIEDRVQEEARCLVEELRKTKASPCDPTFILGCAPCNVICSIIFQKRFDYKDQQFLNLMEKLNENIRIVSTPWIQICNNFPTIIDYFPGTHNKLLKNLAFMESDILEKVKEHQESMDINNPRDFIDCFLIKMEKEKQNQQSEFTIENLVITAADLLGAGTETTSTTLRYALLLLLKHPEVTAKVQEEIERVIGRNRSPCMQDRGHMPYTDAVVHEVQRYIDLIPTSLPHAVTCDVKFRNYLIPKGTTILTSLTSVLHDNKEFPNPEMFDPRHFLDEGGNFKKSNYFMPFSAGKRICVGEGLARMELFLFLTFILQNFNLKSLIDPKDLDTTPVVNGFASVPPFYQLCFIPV
Cytochrome P450 3A4, sequence (P08684 whole entry): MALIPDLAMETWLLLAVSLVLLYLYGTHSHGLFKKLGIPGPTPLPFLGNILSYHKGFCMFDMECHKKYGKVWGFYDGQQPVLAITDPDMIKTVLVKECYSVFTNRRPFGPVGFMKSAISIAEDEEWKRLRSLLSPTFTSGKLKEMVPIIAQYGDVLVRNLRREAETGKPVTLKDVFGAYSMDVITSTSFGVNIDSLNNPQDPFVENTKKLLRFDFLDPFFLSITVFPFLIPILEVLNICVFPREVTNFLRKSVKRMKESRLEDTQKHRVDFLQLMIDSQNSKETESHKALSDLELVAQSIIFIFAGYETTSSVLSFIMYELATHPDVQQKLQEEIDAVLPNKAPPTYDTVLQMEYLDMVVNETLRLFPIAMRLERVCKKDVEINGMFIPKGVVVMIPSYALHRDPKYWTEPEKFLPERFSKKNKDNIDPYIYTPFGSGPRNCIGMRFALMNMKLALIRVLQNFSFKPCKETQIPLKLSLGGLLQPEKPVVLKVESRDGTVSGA

COc1ccc(C=C2C(=O)OC(C)(C)OC2=O)cc1OC
EC50 [1]: > 300 µM (not active)
EC50 [2]: > 300 µM (not active)

Cc1c(N/C=C2\C(=O)NC(=O)N(Cc3ccco3)C2=O)c(=O)n(-c2ccccc2)n1C
EC50 [1]: > 300 µM (not active)
EC50 [2]: > 300 µM (not active)

Cc1cc(C)c(S(=O)(=O)N(C)CC(=O)NC2CCCC2)c(C)c1
EC50 [3]: > 120 µM (not active)
EC50 [4]: > 120 µM (not active)
EC50 [5]: > 120 µM (not active)

CCCCC1=CC2=C(c3ccco3)C(=O)C(C)(OC(=O)c3ccc(OC)cc3)C(=O)C2=CN1CCN1CCOCC1 (stereo not given)
EC50 [1]: 42.2 µM (active)
EC50 [2]: 95.7 µM (active)

COc1ccc2c(c1)C1C=CCC1C(c1cc3c(cc1Br)OCO3)N2 (stereo not given)
EC50 [1]: 47.9 µM (active)
EC50 [2]: > 300 µM (not active)

Cc1ccccc1N1CCN(C(=O)CCN2C(=O)c3ccccc3C2=O)CC1
EC50 [6]: > 150 µM (not active)
EC50 [7]: > 150 µM (not active)
EC50 [8]: > 150 µM (not active)

CC(C)(O)c1[nH]c2cc(F)ccc2c1C(C)(C)O
EC50 [6]: 8.02 µM (active)
EC50 [7]: > 150 µM (not active)
EC50 [8]: 2.05 µM (active)

Cn1ncc2c(NNC(=O)Cc3ccccc3)ncnc21
EC50 [1]: 10.5 µM (active)
EC50 [2]: > 300 µM (not active)

CCCN1CC=C2C(C#N)=C(N)C(C#N)(C#N)C(c3cc(OC)ccc3OC)C2C1 (stereo not given)
EC50 [1]: 25.5 µM (active)
AC50 [9]: 15.8 µM (inconclusive)
EC50 [2]: 27.9 µM (active)
AC50 [10]: 7.94 µM (inconclusive)
AC50 [11]: 14.1 µM (inconclusive)

O=C(CN1CCOCC1)Nc1cccc(Cl)c1Cl
EC50 [3]: > 120 µM (not active)
EC50 [5]: > 120 µM (not active)

CN(Cc1ccc(OC(F)F)cc1)Cc1nc2c(Br)cc(Br)cc2c(=O)[nH]1
EC50 [7]: 29.4 µM (active)

CC1C(=O)C(C)C(c2ccc(Cl)cc2)NC1c1ccc(Cl)cc1 (stereo not given)
EC50 [3]: 13.8 µM (active)
EC50 [4]: 15.7 µM (active)
EC50 [5]: 17.1 µM (active)

O=c1cnc2cnc(N3CCOCC3)nc2n1Cc1cccs1
AC50 [9]: 25.1 µM (inconclusive)
AC50 [12]: 15.8 µM (inconclusive)
AC50 [10]: 31.6 µM (inconclusive)
AC50 [11]: 31.6 µM (inconclusive)

C=CCn1cc(C=C2C(=O)NC(=O)NC2=O)c2ccccc21
EC50 [1]: 112 µM (inconclusive)
EC50 [2]: > 300 µM (not active)

O=C(CN(Cc1ccc(F)cc1)C(=O)C1CSC(=O)C1)NC1CCCCC1 (stereo not given)
EC50 [3]: > 120 µM (not active)
EC50 [4]: > 120 µM (not active)
EC50 [5]: > 120 µM (not active)

O/C(=C(\C([S-])=NCc1ccco1)[n+]1ccccc1)c1ccccc1Br
EC50 [1]: 58.4 µM (active)
EC50 [2]: > 300 µM (not active)

COc1ccc(/C=C/C(=O)NC(=S)NNC(=O)c2ccco2)cc1OC
EC50 [6]: 25.4 µM (active)
EC50 [7]: > 150 µM (not active)
EC50 [8]: 3.65 µM (active)

C1CCCCCC2(CCCCC1)OCC(CN1CCOCC1)O2 (stereo not given)
EC50 [3]: > 120 µM (not active)
EC50 [4]: > 120 µM (not active)
EC50 [5]: > 120 µM (not active)

COC(=O)[C@H]1[C@H](CCc2ccccc2)NC(=O)N(Cc2ccccc2)[C@@H]1C
EC50 [6]: > 150 µM (not active)
EC50 [7]: > 150 µM (not active)

CSC(=Nc1cccc(Cl)c1C)NS(=O)(=O)c1cccs1
EC50 [1]: > 300 µM (not active)
EC50 [2]: > 300 µM (not active)

COc1ccc(OC)c(S(=O)(=O)NC2CCN(Cc3ccccc3)CC2)c1
EC50 [1]: > 300 µM (not active)
EC50 [2]: > 300 µM (not active)

CCC1CN(C(=O)N2CCC(C(=O)NCc3ccc(C)o3)CC2)c2ccccc2O1 (stereo not given)
EC50 [3]: > 120 µM (not active)
EC50 [4]: > 120 µM (not active)
EC50 [5]: > 120 µM (not active)

CC1C2(C)OC(=N)C(C#N)(C(C)O2)C1(C#N)C#N (stereo not given)
EC50 [1]: 16 µM (active)
EC50 [2]: > 300 µM (not active)

COc1cccc(NC(=O)c2ccccc2Br)c1
EC50 [1]: > 300 µM (not active)
EC50 [2]: > 300 µM (not active)

O=C(C1CCC(=O)N1Cc1ccccc1Cl)N1CCN(c2ccc(F)cc2)CC1 (stereo not given)
AC50 [9]: 15.8 µM (inconclusive)
AC50 [12]: 12.6 µM (inconclusive)
AC50 [13]: 2.51 µM (inconclusive)
AC50 [10]: 25.1 µM (inconclusive)
AC50 [11]: 20 µM (inconclusive)

Cc1cc(/C=C2\C(=O)NC(=O)N(c3ccc(F)cc3)C2=O)c(C)n1-c1ccc(C(=O)O)cc1
EC50 [1]: > 300 µM (not active)
EC50 [2]: > 300 µM (not active)

COc1ccc(O)c2c(=O)c3c(OC)cc4c(c3oc12)C1C=COC1O4 (stereo not given)
EC50 [4]: 19.6 µM (active)

CCOC(=O)c1c(-n2c(C)cc(/C=C3/C(=O)NC(=O)N(CC)C3=O)c2C)sc2c1CCCC2
EC50 [1]: 29.8 µM (active)
EC50 [2]: 25.1 µM (active)

CC(C)(C)c1ccc(OCc2ccc(C(=O)Nc3cccnc3)o2)cc1
EC50 [1]: > 300 µM (not active)
EC50 [2]: > 300 µM (not active)

O=C(NCC1CCCO1)c1ccc(CS(=O)(=O)Cc2ccc(F)cc2)o1 (stereo not given)
EC50 [1]: > 300 µM (not active)
EC50 [2]: > 300 µM (not active)
AC50 [11]: 39.8 µM (inconclusive)

O=C(CN1C(=O)COc2ccc(S(=O)(=O)N3CCCCC3)cc21)NCc1ccc(F)cc1
EC50 [6]: > 150 µM (not active)
EC50 [7]: > 150 µM (not active)
EC50 [8]: > 150 µM (not active)

COc1cccc(/C=N/n2c(N)nc3ccccc32)c1OC
EC50 [6]: > 150 µM (not active)
EC50 [7]: > 150 µM (not active)
EC50 [8]: > 150 µM (not active)

C/C(=N/NS(=O)(=O)c1ccc(Cl)cc1)c1cccc(NC(=O)c2ccc(Cl)cc2Cl)c1
EC50 [6]: 47.6 µM (active)
EC50 [7]: 23.4 µM (active)
EC50 [8]: 3.99 µM (active)

COc1ccc(C(=O)/N=C2\SC3CS(=O)(=O)CC3N2Cc2ccccc2)cc1OC (stereo not given)
EC50 [3]: 26.2 µM (active)
EC50 [4]: 25.4 µM (active)
EC50 [5]: > 120 µM (not active)

C/C(CCc1oc2ccc(Cl)cc2c1-c1ccc(C)o1)=N\O
EC50 [1]: > 300 µM (not active)
EC50 [2]: > 300 µM (not active)
CC50 [14]: 37.9 µM (active)

Cc1cccc(C)c1NC(=O)NN=C1CCCCC1
EC50 [1]: > 300 µM (not active)
EC50 [2]: > 300 µM (not active)

COc1ccc(N2C(N)=NC(N)=NC2(C)C)cc1
EC50 [3]: 10 µM (active)
EC50 [4]: > 120 µM (not active)
EC50 [5]: 7.02 µM (active)

From ChEMBL document CHEMBL1201862, “PubChem BioAssay data set” (2004)
